{"source": "patent US9375497B2", "about": "“[F-18]-labeled L-glutamic acid, [F-18]-labeled L-glutamine, derivatives thereof and use thereof and processes for their preparation” (BAYER SCHERING PHARMA AKTIENGESELLSCHAFT, priority 2006, dated 2016)", "key": {"[1]": {"test_system": "HT29 (colonic carcinoma) cells", "test": "Tumor cell uptake in HT29 cells", "format": "cell-based, human", "conditions": "compared to [^18F]FDG", "procedure": "(§1) For the evaluation of the tumor cell uptake of [^18F]glutamic acid, cell uptake experiments were carried out in human A549 (non-small-cell bronchial carcinoma) and HT29 (colonic carcinoma) cells. The tumor cell uptake of the glutamic acid derivatives was compared to\n(§2) [^18F]FDG (gold standard for oncological PET investigations)."}, "[2]": {"test_system": "A549 (non-small-cell bronchial carcinoma) cells", "test": "Tumor cell uptake in A549 cells", "format": "cell-based, human", "conditions": "250 kBq/well, compared to [^18F]FDG", "procedure": "as §1, §2\nFIG. 2: Comparison of the time-dependent tumor cell uptake of [^18F]-4-glutamic acid [20-35 μM] (on the left) and [F-18]FDG [2 μM] (on the right) in A549 cells. The cells were incubated with 250 kBq/well. For displacement experiments, L-glutamic acid (1 mM) or glucose (5 mM) was used (mean value±standard deviation, n=3)."}, "[3]": {"test_system": "murine B16F1 melanoma model in C57BI6 mice", "test": "Tumor enrichment and tissue distribution, B16F1 melanoma model", "conditions": "for Tumor/tissue quotient, Ovary: single i.v.; for Tissue uptake, Brain: single i.v. 111 kBq", "procedure": "(§3) For the evaluation of the tumor enrichment and the tissue distribution in experimental animals, [^18F]-4-glutamic acid was tested in a murine F9 teratocarcinoma model in NMRI nude mice and a murine B16F1 melanoma model in C57BI6 mice.\n(§4) For this, 1×10^6 cells (F9) or 5×10^5 cells (B16F1) respectively were suspended in 100 μl of phosphate-buffered physiological saline solution and inoculated subcutaneously into the right, rear flank of the corresponding experimental animal species (NMRI for F9 and 057-BI6 for B16F1) (Berndorff et al. Clin. Cancer Res. 2005, 11, 2005). […] [^18F]-4-Glutamic acid (370 kBq, in 100 μl of physiological saline solution) was administered intravenously to the tail vein. After 15; 60 and 120 min in each case, the animals were killed, organ and tumor removed, weighed and measured for radioactive content."}, "[4]": {"test_system": "murine F9 teratocarcinoma model in NMRI nude mice", "test": "Tumor enrichment and tissue distribution, F9 teratocarcinoma model", "conditions": "for Tumor/tissue quotient, Liver: single i.v.", "procedure": "as §3\nas §4, with “After 15; 60 and 120 min in each case, the animals were killed, organ and tumor removed, weighed and measured for radioactive content.” left out"}}}
{"compound": "NC(CC(CCC[18F])C(=O)O)C(=O)O", "note": "(centres unmarked) [2-amino-4-(3-[F-18]fluoropropyl)pentanedicarboxylic acid]", "values": [{"measurement": "tumor cell uptake", "setting": "[1]", "value": "Analogous uptake results"}, {"measurement": "tumor cell uptake", "setting": "[2]", "value": "Analogous uptake results"}]}
{"compound": "N[C@@H](CC[14C](=O)O)C(=O)O", "note": "[[^14C]5-glutamic acid, reference compound]", "values": [{"measurement": "Tumor/tissue quotient, Ovary", "setting": "[3]; 0.25 h (times as Table 7)", "value": 0.47}, {"measurement": "Tissue uptake, Brain", "setting": "[3]; 0.25 h", "value": 0.22, "unit": "% dose/g"}, {"measurement": "Tumor/tissue quotient, Ovary", "setting": "[3]; 1.0 h (times as Table 7)", "value": 1.01}, {"measurement": "Tissue uptake, Brain", "setting": "[3]; 1.0 h", "value": 0.13, "unit": "% dose/g"}, {"measurement": "Tissue uptake, Brain", "setting": "[3]; 2.0 h", "value": 0.09, "unit": "% dose/g"}, {"measurement": "tumor enrichment", "setting": "[3]; B16F1 melanoma, 1 h after intravenous administration", "value": 1.03, "unit": "% ID/g"}, {"measurement": "maximal tumor enrichment", "setting": "[3]; B16F1 melanoma, \"at the same time\"", "value": 1.23}, {"measurement": "Tumor/tissue quotient, Liver", "setting": "[4]; 1.0 h (times as Table 5)", "value": 1.31}, {"measurement": "Tumor/tissue quotient, Liver", "setting": "[4]; 4.0 h (times as Table 5)", "value": 1.09}, {"measurement": "tumor enrichment", "setting": "[4]; F9 teratocarcinoma, 1 h after intravenous administration", "value": 0.98, "unit": "% ID/g"}, {"measurement": "maximal tumor enrichment", "setting": "[4]; F9 teratocarcinoma, similarly early time (30 min)", "value": 0.81, "unit": "% ID/g"}]}
{"compound": "NC(=O)C([18F])CC(N)C(=O)O", "note": "(centres unmarked) [[^18F]-4-glutamine, 2-amino-4-[F-18]fluoroglutamine]", "values": [{"measurement": "tumor cell uptake", "setting": "[1]", "value": "Analogous uptake results"}, {"measurement": "tumor cell uptake", "setting": "[2]", "value": "Analogous uptake results"}]}
{"compound": "NC(CC(OCC[18F])C(=O)O)C(=O)O", "note": "(centres unmarked) [2-amino-4-(2-[F-18]fluoroethoxy)pentanedicarboxylic acid]", "values": [{"measurement": "tumor cell uptake", "setting": "[1]", "value": "Analogous uptake results"}, {"measurement": "tumor cell uptake", "setting": "[2]", "value": "Analogous uptake results"}]}
